Test results: patent US20220273007A1, “FUNCTIONAL FOOD FOR PREVENTING OR IMPROVING DYSURIA” (MARUHACHI MURAMATSU, INC., priority 2019, published 2022)

How the values were obtained:
[1] = system: rat bladder smooth muscle; experiment: Organ bath assay: 80 mM KCl contractile inhibition assay
Description: The concentration of each fatty acid was set according to the amount thereof present in a 95% ethanol extract of akamoku (Japan Food Research Laboratories; JFRL quantitative analysis). […] Ethanol was used as a control. As in the example described above, 80 mM KCl, a contraction inducer, was also added to induce contraction. The tension (contractile force) of slices of rat bladder smooth muscle was then measured to evaluate contraction inhibition effects. […]
The maximum concentration of each fatty acid was set according to the amount thereof present in a 95% ethanol extract of akamoku (JFRL quantitative analysis). Concentrations of 7.1 μg/mL EPA, 21.3 μg/mL EPA, 71 μg/mL EPA, 4.7 μg/mL stearidonic acid, 14.1 μg/mL stearidonic acid, and 47 μg/mL stearidonic acid were set. As in the examples described above, 80 mM KCl, a contraction inducer, was also added to induce contraction. The tension (contractile force) of slices of rat bladder smooth muscle was then measured to evaluate contraction inhibition effects.

[2] = system: acetic-acid-induced pollakiuria model rats; experiment: In vivo assay (cystometry) using acetic-acid-induced pollakiuria model rats; design: species or system rat; details: 0.5 mg/kg oral (MC solution)
Description: In this experiment, 0.1% acetic acid diluted with normal saline was directly injected into the bladders of urethane-anesthetized rats to induce bladder hypersensitivity and create model rats having symptoms of acute (or chronic) pollakiuria, and in vivo assays were performed using these acetic-acid-induced pollakiuria model rats. […] In this way, the effects of the 95% ethanol extract of akamoku upon pollakiuric states in rats were investigated.
control (vehicle)=0.5% methyl cellulose (MC); and akamoku extract=50 mg/mL MC solution of akamoku extract.
• Maximum intravesical pressure (voiding pressure) • Base pressure • Threshold pressure • Voiding interval • Volume per void
Using the model rats with symptoms of acute (chronic) pollakiuria created in experiment 13, a 50 mg/mL MC solution of 50% ethanol extract of akamoku was orally administered to the model rats (n=7). In the graphs in FIG. 18, measured parameters are the voiding intervals, volume per void, and voiding frequency per unit of time of the rats, and pollakiuria-symptomatic model rats are compared with control rats receiving 0.5% methyl cellulose (MC) solution. In this way, the effects of the 50% ethanol extract of akamoku upon pollakiuric states in rats are investigated.
Using the model rats with symptoms of acute (chronic) pollakiuria created in experiment 13, a 50 mg/mL aqueous solution of aqueous akamoku extract was orally administered to the model rats. In the graphs in FIG. 19, measured parameters are the voiding intervals, volume per void, and voiding frequency per unit of time of the rats, compared with control rats receiving ultrapure water. In this way, the effects of the aqueous akamoku extract upon pollakiuric states in rats are investigated.
Using the model rats with symptoms of acute (chronic) pollakiuria created in experiment 13, 0.5 mg/kg akamoku-derived fucoxanthin Fx (MC solution) was orally administered to the model rats. […] In the graphs in FIG. 20, measured parameters are the voiding intervals, volume per void, and voiding frequency per unit of time of the rats, compared with control rats receiving 0.5% methyl cellulose (MC) solution.

CC/C=C\C/C=C\C/C=C\CCCCCCCC(=O)O [α-linolenic acid]
activity at 36 µg/mL ([1]; Rattus norvegicus, 36 μg/mL, 80 mM KCl, read-out: average contraction compared to 100% uninhibited contraction): 86.8%

CC(=O)O[C@H]1CC(C)(C)C(=C=C/C(C)=C/C=C/C(C)=C/C=C/C=C(C)/C=C/C=C(\C)C(=O)C[C@@]23O[C@]2(C)C[C@@H](O)CC3(C)C)[C@](C)(O)C1 [akamoku-derived fucoxanthin, fucoxanthin]
improvement in 0.1% acetic-acid-induced pollakiuria [2]: significant improvement
voiding frequency per unit of time [2]: decreased
voiding interval [2]: tended to increase
volume per void [2]: increased

CC/C=C\C/C=C\C/C=C\C/C=C\CCCCC(=O)O [stearidonic acid]
average contraction compared to 100% uninhibited contraction ([1]; 47 μg/mL, 80 mM KCl): 75.6%
activity at 4.7 µg/mL ([1]; Rattus norvegicus, 4.7 μg/mL, 80 mM KCl, read-out: average contraction compared to 100% uninhibited contraction): 87.8%
activity at 14.1 µg/mL ([1]; Rattus norvegicus, 14.1 μg/mL, 80 mM KCl, read-out: average contraction compared to 100% uninhibited contraction): 89.5%
activity at 47 µg/mL ([1]; Rattus norvegicus, 47 μg/mL, 80 mM KCl, read-out: average contraction compared to 100% uninhibited contraction): 68.5%
inhibition of 80 mM KCl contraction ([1]; fatty acid at amount present in 95% ethanol extract of akamoku (EPA 71 μg/mL, stearidonic acid 47 μg/mL)): significantly inhibited contraction

CC/C=C\C/C=C\C/C=C\C/C=C\C/C=C\CCCC(=O)O [EPA, eicosapentaenoic acid]
average contraction compared to 100% uninhibited contraction ([1]; 71 μg/mL, 80 mM KCl): 73.3%
activity at 7.1 µg/mL ([1]; Rattus norvegicus, 7.1 μg/mL, 80 mM KCl, read-out: average contraction compared to 100% uninhibited contraction): 91.1%
activity at 21.3 µg/mL ([1]; Rattus norvegicus, 21.3 μg/mL, 80 mM KCl, read-out: average contraction compared to 100% uninhibited contraction): 87.2%
activity at 71 µg/mL ([1]; Rattus norvegicus, 71 μg/mL, 80 mM KCl, read-out: average contraction compared to 100% uninhibited contraction): 78.2%

CCCCC/C=C\C/C=C\C/C=C\C/C=C\CCCC(=O)O [arachidonic acid]
activity at 44 µg/mL ([1]; Rattus norvegicus, 44 μg/mL, 80 mM KCl, read-out: average contraction compared to 100% uninhibited contraction): 82%
